From patent US6423545B1, “Unmarked deletion mutants of mycobacteria and methods of using same” (Albert Einstein College of Medicine of Yeshiva University, priority 1999, dated 2002)
“Also recorded” adds a separate entry of the source.

Tests used:
[1] = test system: M. bovis BCG substrain Pasteur; type: cell-based, Mycobacterium bovis BCG
[2] = test system: aspartokinase; conditions: enzyme of the first step of the aspartate amino acid family pathway; cited from earlier work
[3] = test system: M. tuberculosis H37Rv; type: cell-based, Mycobacterium tuberculosis
[4] = test system: C. glutamicum; conditions: AEC alone versus with threonine; cited from earlier work
[5] = test system: E. coli; conditions: AEC alone; cited from earlier work

| Compound | inhibitory effect upon growth [1] | inhibition of aspartokinase [2] | inhibitory effect upon growth [3] | inhibition of growth [4] | inhibition of growth [5] |
| --- | --- | --- | --- | --- | --- |
| NCCSC[C@H](N)C(=O)O [AEC, S-(β-aminoethyl)-L-cysteine] | neither AEC or Thr alone have an inhibitory effect; also recorded: the combination of the two does inhibit growth, with BCG experiencing the greatest inhibition | inhibits aspartokinase | neither AEC or Thr alone have an inhibitory effect; also recorded: the combination of the two does inhibit growth | requires the addition of threonine to inhibit the growth of C. glutamicum | capable of inhibiting the growth of E. coli |
| C[C@@H](O)[C@H](N)C(=O)O [Thr, threonine] | neither AEC or Thr alone have an inhibitory effect |  | neither AEC or Thr alone have an inhibitory effect |  |  |
